One assay deals with T1, PLK1 (Homo sapiens, UniProt P53350).
T1 construct: purchased Invitrogen PV3501
As to the kind of experiment: PLK1 Inhibition Assay (Z-Lyte). It is filed as biochemical. As to conditions: for inhibition at 10 µM: 10 μM compound, read-out: PLK1 relative inhibition percentage at a dose of 10 μM; for IC50: 25 μM ATP, 8 nM PLK1, read-out: PLK1 IC50 Ranges. The procedure:
PLK1 inhibition was determined using the Z-Lyte assay kit from Invitrogen (cat #PV3802). […] The % inhibition values were determined according to the manufacturer's directions and IC50 values were obtained using a non-linear 4 point logistic curve fit (XLfit4, IDBS)

The next assay deals with T2, PLK2 (Homo sapiens, UniProt Q9NYY3).
T2 construct: purchased Invitrogen PV4204
T2 sequence (Q9NYY3 whole entry): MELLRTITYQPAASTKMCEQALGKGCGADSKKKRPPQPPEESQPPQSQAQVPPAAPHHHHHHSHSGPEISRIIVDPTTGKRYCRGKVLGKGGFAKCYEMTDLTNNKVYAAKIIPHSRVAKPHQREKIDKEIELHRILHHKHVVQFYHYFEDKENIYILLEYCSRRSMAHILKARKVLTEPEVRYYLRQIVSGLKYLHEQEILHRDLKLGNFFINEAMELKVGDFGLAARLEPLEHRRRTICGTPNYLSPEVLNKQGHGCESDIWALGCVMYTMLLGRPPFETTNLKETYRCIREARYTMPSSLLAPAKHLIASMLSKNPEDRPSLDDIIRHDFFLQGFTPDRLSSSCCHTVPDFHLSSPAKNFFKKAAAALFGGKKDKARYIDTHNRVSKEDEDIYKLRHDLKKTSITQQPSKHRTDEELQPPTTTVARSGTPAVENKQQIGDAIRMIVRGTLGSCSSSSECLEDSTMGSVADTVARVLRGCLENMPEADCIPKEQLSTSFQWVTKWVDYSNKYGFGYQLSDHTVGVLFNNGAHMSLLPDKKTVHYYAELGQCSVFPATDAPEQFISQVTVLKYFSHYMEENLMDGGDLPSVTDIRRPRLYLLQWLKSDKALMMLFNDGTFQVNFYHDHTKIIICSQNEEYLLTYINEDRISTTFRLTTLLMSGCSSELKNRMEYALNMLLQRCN
Nature of the assay: PLK2 Inhibition Assay (Z-Lyte). It is filed as biochemical. As to conditions: 10 μM compound; read-out: PLK2 relative inhibition percentage at a dose of 10 μM. Here is the method:
PLK2 inhibition was determined using the Z-Lyte assay kit from Invitrogen (cat #PV3802). The assay was performed using the recommended manufacturer's instructions with 60 μM ATP and 133 nM PLK2 (Invitrogen cat #PV4204). The % inhibition values were determined according to the manufacturer's directions and IC50 values were obtained using a non-linear 4 point logistic curve fit (XLfit4, IDBS)

Another assay concerns the target T3, Aurora A (Homo sapiens, UniProt O14965).
T3 construct: purchased Invitrogen PV3612
T3 sequence (O14965 1-403): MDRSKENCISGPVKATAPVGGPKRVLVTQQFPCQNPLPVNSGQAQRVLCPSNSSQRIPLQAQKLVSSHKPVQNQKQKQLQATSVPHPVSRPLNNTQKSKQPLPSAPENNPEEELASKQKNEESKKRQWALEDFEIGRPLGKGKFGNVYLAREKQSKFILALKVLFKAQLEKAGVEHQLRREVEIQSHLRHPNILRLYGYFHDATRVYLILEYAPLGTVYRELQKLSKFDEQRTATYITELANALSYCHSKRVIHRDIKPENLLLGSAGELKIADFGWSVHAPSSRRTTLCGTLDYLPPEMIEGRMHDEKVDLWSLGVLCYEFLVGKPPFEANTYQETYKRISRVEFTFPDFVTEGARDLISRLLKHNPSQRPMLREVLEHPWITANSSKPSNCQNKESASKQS
Nature of the assay: Aurora A Inhibition Assay (Z-Lyte). It is filed as biochemical. The settings on record: for IC50: 20 μM ATP, 12 nM Aurora A, read-out: Aurora A IC50 Ranges. Here is the method: Aurora A inhibition was determined using the Z-Lyte assay kit from Invitrogen. The assay was performed using the recommended manufacturer's instructions with 20 μM ATP and 12 nM Aurora A (Invitrogen cat #PV3612). The % inhibition values were determined according to the manufacturer's directions and IC50 values were obtained using a non-linear 4 point logistic curve fit (XLfit4, IDBS)

The subject of assay [1] is human mammary epithelial primary cells (HMEC). Nature of the assay: Cell growth inhibition, Sulforhodamine B assay (SRB). It counts as cell-based. The settings on record: 120 h, 5 days culture, read-out: Cell Line GI50 Range, HMEC. The method in brief: (§1)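 Cells seeded 24 h before compound addition, then exposed to 10 nM–50 μM final compound in DMEM + 10% FBS for 5 days. Growth measured by TCA fixation, SRB staining and absorbance at 570 nm; % inhibition relative to DMSO-only cells, with GI50 fitted for cytotoxic compounds.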

In assay [2] the test system is HCC1954 basal breast cancer cell line. Described as above. As to conditions: Homo sapiens, HCC1954, 120 h, 5 days culture, read-out: Cell Line GI50 Range, HCC-1954. It is filed as cell-based. The method in brief:
as §1

The next assay deals with SW620 colon cancer cells. The assay is described as above. It counts as cell-based. As to conditions: Homo sapiens, SW-620, 120 h, 5 days culture, read-out: Cell Line GI50 Range, SW-620. The method in brief:
as §1

In the next assay the test system is A549 lung cancer cells. The assay is described as above. It counts as cell-based. As to conditions: Homo sapiens, A549, 120 h, 5 days culture, read-out: Cell Line GI50 Range, A-549. The method in brief:
as §1

Assay [3] concerns MDA-MB-468 basal breast cancer cell line. The description is as above. It is filed as cell-based. As to conditions: Homo sapiens. The method in brief:
as §1

Assay [4] deals with MCF-7 luminal breast cancer cell line. The description is as above. It is filed as cell-based. As to conditions: Homo sapiens. The method in brief: as §1
In assay [5] the test system is T47 D breast cancer cell line. Nature of the assay: Cell growth inhibition, SRB assay, extended panel. It counts as cell-based. The settings on record: Homo sapiens, T47D; read-out: GI50 on T47D Breast cancer cell line. The procedure: Breast cancer cells (MCF-7, MDA-MB-468, HCC1954), colon cancer cells (SW620) and lung cancer cells (A549), together with human mammary epithelial primary cells (HMEC), were seeded (1000 to 4000 per 80 μl per well depending on the cell growth rate) into 96 well plates, 24 hours before compound overlay. Compounds were prepared as 10 mM stock solutions in 100% DMSO which were diluted with DMEM (Dulbecco's Modified Eagle's Medium) cell growth Medium (Invitrogen, Burlington, ON, Canada) containing 10% FBS (Fetal Bovine Serum) to concentrations ranging from 50 nM to 250 μM. Aliquots (20 μl) from each concentration were overlaid to 80 μl of the pre-seeded cells in the 96 well plates to make final concentrations of 10 nM to 50 μM. The cells were cultured for 5 days before the Sulforhodamine B assay (SRB) was performed to determine the compound's cell growth inhibition activity.
Sulforhodamine B (purchased from Sigma, Oakville, ON, Canada) is a water-soluble dye that binds to the basic amino acids of the cellular proteins. Thus, colorimetric measurement of the bound dye provides an estimate of the total protein mass that is related to the cell number. the cells are fixed in situ by gently aspirating off the culture media and adding 50 μl ice cold 10% Tri-chloroacetic Acid (TCA) per well and incubate at 4° C. for 30-60 min, The plates are washed with water five times and allowed to air dry for 5 min. Addition of 50 μl 0.4% (w/v) SRB solution in 1% (v/v) acetic acid to each well and incubatation for 30 min at RT completes the staining reaction. Following staining, plates are washed four times with 1% acetic acid to remove unbound dye and then allowed to air dry for 5 min. The stain is solubilized with 100 μl of 10 mM Tris pH10.5 per well. Absorbance is read at 570 nm.
The percentage (%) of relative growth inhibition was calculated by comparing to DMSO treated only cells (100%). GI50's were determined for compounds with cytotoxic activity. The GI50 was calculated using GraphPad PRISM software (GraphPad Software, Inc., San Diego, Calif., USA).
In addition to the cell lines tested as described above, selected compounds have been assayed against an extended panel. […] The sulforhodamine B assay (SRB) described above was use to assay test compounds against the extended panel (Table 9).

For a further assay, the target named is T4, human PLK4 (Homo sapiens, UniProt O00444).
T4 construct: amino terminal GST fusion of residues 1-391 of human PLK4; made in house; host or cells: E. coli
T4 sequence (O00444 1-391): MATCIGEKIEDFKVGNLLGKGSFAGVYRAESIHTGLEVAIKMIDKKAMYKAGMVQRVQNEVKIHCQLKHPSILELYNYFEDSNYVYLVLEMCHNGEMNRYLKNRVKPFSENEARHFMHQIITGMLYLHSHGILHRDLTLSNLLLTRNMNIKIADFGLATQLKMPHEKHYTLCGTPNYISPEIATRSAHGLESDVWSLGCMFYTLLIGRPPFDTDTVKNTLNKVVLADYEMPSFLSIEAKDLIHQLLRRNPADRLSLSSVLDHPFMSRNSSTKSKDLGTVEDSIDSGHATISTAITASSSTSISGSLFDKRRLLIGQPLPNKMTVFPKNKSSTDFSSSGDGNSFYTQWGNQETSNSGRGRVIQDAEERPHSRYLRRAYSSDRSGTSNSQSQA
As to the kind of experiment: PLK4 Inhibition Assay (indirect ELISA). It is filed as biochemical. The settings on record: 15 μM ATP, 4 nM GST-PLK4; read-out: PLK4 IC50 Ranges. The method in brief:
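Dephosphorylated (lambda phosphatase) GST-PLK4 activity read by indirect ELISA. Compounds were pre-incubated with enzyme for 15 minutes before ATP was added. IC50 came from a non-linear 4-point logistic fit.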

The target of a further assay is T5, Aurora B (Homo sapiens, UniProt Q96GD4).
T5 construct: purchased Invitrogen PV3970
T5 sequence (Q96GD4 whole entry): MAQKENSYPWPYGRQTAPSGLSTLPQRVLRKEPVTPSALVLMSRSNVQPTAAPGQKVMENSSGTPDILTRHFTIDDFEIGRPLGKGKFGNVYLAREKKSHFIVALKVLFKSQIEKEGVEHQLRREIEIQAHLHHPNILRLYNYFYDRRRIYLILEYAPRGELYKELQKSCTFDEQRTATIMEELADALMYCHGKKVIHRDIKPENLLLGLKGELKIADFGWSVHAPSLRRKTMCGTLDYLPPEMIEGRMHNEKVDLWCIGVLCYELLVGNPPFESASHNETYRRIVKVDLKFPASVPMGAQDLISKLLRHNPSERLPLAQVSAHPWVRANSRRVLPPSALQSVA
As to the kind of experiment: Aurora B Inhibition Assay (Z-Lyte). It counts as biochemical. The settings on record: 128 μM ATP, 28 nM Aurora B; read-out: Aurora B IC50 Ranges. The procedure: Aurora B inhibition was determined using the Z-Lyte assay kit from Invitrogen. The assay was performed using the recommended manufacturer's instructions with 128 μM ATP and 28 nM Aurora B (Invitrogen cat #PV3970). The % inhibition values were determined according to the manufacturer's directions and IC50 values were obtained using a non-linear 4 point logistic curve fit (XLfit4, IDBS)

[6] abbreviates: MDA-MB-468, 120 h, 5 days culture, SRB, read-out: Cell Line GI50 Range, MDA-MB-468.
The mark [7] stands for this setting: MCF7, 120 h, 5 days culture, SRB, read-out: Cell Line GI50 Range, MCF-7.
Where [8] appears, read: MDA-MB-468, read-out: GI50 on MDA-MB-468 Breast cancer cell line.
Where [9] appears, read: MCF7, read-out: GI50 on MCF-7 Breast cancer cell line.

Each structure is given as a SMILES string. Where two headings read alike, the source gives them in different places. A value given as a limit tells only on which side of the number the result lay.

T1 sequence (P53350 whole entry): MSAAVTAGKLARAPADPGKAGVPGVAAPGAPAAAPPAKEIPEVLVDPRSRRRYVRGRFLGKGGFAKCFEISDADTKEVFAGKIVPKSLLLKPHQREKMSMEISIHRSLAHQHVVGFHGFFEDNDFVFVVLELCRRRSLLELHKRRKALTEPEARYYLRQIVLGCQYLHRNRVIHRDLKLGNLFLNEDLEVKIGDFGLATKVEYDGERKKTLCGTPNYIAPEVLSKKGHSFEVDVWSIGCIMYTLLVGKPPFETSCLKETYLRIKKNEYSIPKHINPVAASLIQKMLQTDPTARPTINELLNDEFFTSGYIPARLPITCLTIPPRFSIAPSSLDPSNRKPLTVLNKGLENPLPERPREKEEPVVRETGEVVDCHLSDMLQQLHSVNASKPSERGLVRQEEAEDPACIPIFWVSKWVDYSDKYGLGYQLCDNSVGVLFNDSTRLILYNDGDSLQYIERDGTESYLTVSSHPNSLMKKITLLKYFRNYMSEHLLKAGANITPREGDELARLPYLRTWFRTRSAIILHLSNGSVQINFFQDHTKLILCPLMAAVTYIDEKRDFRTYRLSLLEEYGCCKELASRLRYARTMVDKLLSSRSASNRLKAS

For orientation: inhibition means how much of the control response was suppressed. One may read the GI50 as the concentration at which growth is held to half of that of the control. On to `Cc1ncsc1/C=C/c1n[nH]c2cc(/C=C3/C(=O)Nc4ccccc43)ccc12` [Example A103, (E)-3-((3-((E)-2-(4-methylthiazol-5-yl)vinyl)-1H-indazol-6-yl)methyl-ene)indolin-2-one], for which the inhibition at 10 µM was below 50% on PLK1; below 50% at PLK2; above 50% on Aurora A (10 μM compound, read-out: Aurora A relative inhibition percentage at a dose of 10 μM). Further, the GI50 in assay [1] is above 50 µM; in [2] it was 5 to 20 µM; in the assay on SW620 colon cancer cells, below 5 µM; with A549 lung cancer cells it was 5 to 20 µM; in assay [3] (setting [6]), below 5 µM; in assay [4] (setting [7]) it was below 5 µM.
In general, IC50 refers to the concentration that inhibits the measured activity by half. For `CNS(=O)(=O)c1ccc2c(c1)C(=Cc1ccc3cn[nH]c3c1)C(=O)N2` (mixture of isomers) [Example A9, (E and Z)-3-((1H-indazol-6-yl)methylene)-N-methyl-2-oxoindoline-5-sulfonamide], the IC50 at PLK1 and at human PLK4 was below 5 µM each time. The GI50 in [5], in assay [3] (setting [8]) and in assay [4] (setting [9]) was above 50 µM each time.
`O=C1Nc2ccc(Cl)cc2/C1=C\c1ccc2c(/C=C/c3ccncc3)n[nH]c2c1` [Example A84, (E)-5-chloro-3-((3-((E)-2-(pyridin-4-yl)vinyl)-1H-indazol-6-yl)methylene)indolin-2-one]: the inhibition at 10 µM on PLK1 and on PLK2 was below 50% throughout. Moreover, the IC50 on Aurora B, on human PLK4 and on Aurora A was below 5 µM each time. In addition, the GI50 is above 50 µM in assay [1]; 5 to 20 µM in [2]; below 5 µM in the assay on SW620 colon cancer cells; above 50 µM with A549 lung cancer cells; below 5 µM in [3] (setting [6]); below 5 µM in assay [4] (setting [7]).
In the case of `CNS(=O)(=O)c1ccc2c(c1)C(=Cc1ccc3[nH]nnc3c1)C(=O)N2` [Example A7, 3-((1H-benzo[d][1,2,3]triazol-5-yl)methylene)-N-methyl-2-oxoindoline-5-sulfonamide], the IC50 was 5 to 50 µM on PLK1 and below 5 µM at human PLK4. In addition, the GI50 in assay [5], in assay [3] (setting [8]) and in assay [4] (setting [9]) was above 50 µM throughout.
As for `CCOC(=O)/C=C/c1n[nH]c2cc(/C=C3/C(=O)Nc4ccc(OC)cc43)ccc12` [Example A111, (E)-ethyl 3-(6-((E)-(5-methoxy-2-oxoindolin-3-ylidene)methyl)-1H-indazol-3-yl)acrylate], the inhibition at 10 µM on PLK1 and on PLK2 was below 50% in each case. Further, the GI50 in assay [5], in assay [3] (setting [8]) and in [4] (setting [9]) was above 50 µM in each case. For the same compound, the IC50 at human PLK4 and on Aurora A was below 5 µM throughout.
In the case of `O=C1Nc2ccccc2/C1=C\c1ccc2c(-c3cccs3)n[nH]c2c1` [Example A91, (E)-3-((3-(thiophen-2-yl)-1H-indazol-6-yl)methylene)indolin-2-one], the inhibition at 10 µM on PLK1 and at PLK2 was below 50% each time. Also, the concentration for half-maximal inhibition (IC50) at Aurora B was below 5 µM; at human PLK4 it was below 5 µM; at Aurora A, 5 to 50 µM. The GI50 in [1] was 5 to 20 µM; in assay [2], below 5 µM; in the assay with SW620 colon cancer cells, below 5 µM; in assay [3] (setting [6]), below 5 µM; in assay [4] (setting [7]), below 5 µM.

(Values after patent publication US8765748B2, “Indazolyl, benzimidazolyl, benzotriazolyl substituted indolinone derivatives as kinase inhibitors useful in the treatment of cancer” (University Health Network, priority 2007, dated 2014).)
